In publication PMC10545696, “Fast functional mapping of ligand-gated ion channels” (Communications Biology, 2023) one finds EC50 data, which are given here for 1 compound.

The assay deals with T1, P2X2 (His-rP2x2-StrepII) (Rattus norvegicus, UniProt P49653).
T1 construct: gene P2rx2; His tag and StrepII tag; homotrimer
T1 sequence (P49653 1-472): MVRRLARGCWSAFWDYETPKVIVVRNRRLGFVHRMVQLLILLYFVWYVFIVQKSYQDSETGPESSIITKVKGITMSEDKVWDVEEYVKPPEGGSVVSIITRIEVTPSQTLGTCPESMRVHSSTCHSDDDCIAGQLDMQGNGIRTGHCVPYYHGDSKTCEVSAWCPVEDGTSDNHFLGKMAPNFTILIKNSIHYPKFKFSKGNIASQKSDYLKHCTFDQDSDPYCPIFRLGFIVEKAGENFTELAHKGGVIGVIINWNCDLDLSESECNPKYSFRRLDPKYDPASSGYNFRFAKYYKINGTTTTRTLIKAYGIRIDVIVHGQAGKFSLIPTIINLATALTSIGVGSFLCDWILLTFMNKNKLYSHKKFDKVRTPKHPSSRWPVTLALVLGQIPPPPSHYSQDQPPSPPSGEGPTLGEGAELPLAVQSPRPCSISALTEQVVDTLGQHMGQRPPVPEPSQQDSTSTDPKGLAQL
The assay can be described thus: whole-cell patch clamp, HEK293, multi-step microfluidic application. The format is cell-based.

Molecules are shown by their SMILES.

`Nc1ncnc2c1ncn2[C@@H]1O[C@H](COP(=O)(O)OP(=O)(O)OP(=O)(O)O)[C@@H](O)[C@H]1O` [ATP]: the concentration for a half-maximal effect (EC50) turned out to be 1.5 ± 0.02 µM.
